Test results taken from patent US20240116923A1, “USE OF INDOLE, 6- AND 7-AZAINDOLE DERIVATIVES AS INHIBITORS OF FERROPTOSIS REGULATED CELL DEATH” (Seabelife, priority 2021, published 2024).
Like-named read-outs stand apart in the source and are kept apart here.

Assays:
[1] = test system: human neuroblastoma cell line SH-SY5Y; assay: Neurotoxicity assay, SH-SY5Y cells + erastin or RSL3, MTS cell viability; assay type: cell-based; conditions: Homo sapiens
Experimental: The excitotoxicity model used was the mouse hippocampal neuronal HT22 cells treated with glutamate [Dixon et al., Cell, 2012, 149(5), 1060-1072]. Ferroptosis and oxidative stress are both associated in this glutamate-induced cell death [Chu et al., Neural Regen. Res., 2020, 15(3), 528-536]. Phenotypic screening was also carried out with additional cell death inducers, erastin and RSL3 ((1S,3R)-Ras-selective lethal), in HT22 and SH-SY5Y (human neuroblastoma cells). Erastin and RSL3 are well described molecules, used as chemical tools for the study of ferroptosis regulation and neuronal pathologies [Lewerenz et al., Front. Neurosci., 2018, 12: 214; Reichert et al., Int. J. Mol. Sci., 2020, 21, 8765].
Mouse hippocampal neuronal cell line (HT22, ATCC) and human neuroblastoma cell line (SH-SY5Y, ATCC) were grown in Dulbecco's Modified Eagle Medium (DMEM, Gibco) supplemented with 10% fetal bovine serum (FBS, Gibco) at 37° C. under 5% CO2 atmosphere. Neurotoxicity was induced by erastin or RSL3 and excitotoxicity was induced by glutamate. Cells were seeded in 96-well plates at 5,000 and 10,000 cells/well for HT22 and SH-SY5Y cell lines, respectively. Cells were treated with 0.5-1 μM Erastin (HT22 cells) or 10 μM Erastin (SH-SY5Y cells) or 5-10 mM glutamate (HT22 cells) or 0.5 μM RSL3 (HT22 cells) or 5 μM RSL3 (SH-SY5Y cells) for 24 h in presence of increasing concentrations of inhibitors. Cells treated with DMSO only were used as controls. Cell viability was assessed by MTS assay (CellTiter 96 AQueous One Solution Cell Proliferation assay, Promega).
In FIGS. 1, 2A and 2B, an inhibitor was added to HT22 (FIG. 1: compound 6) or SH-SY5Y (FIG. 2A: compound 6; FIG. 2B: compound 25) cells in the presence or not of cell death inducers (erastin, glutamate or RSL3). […] EC50 values for compounds 1-28 were calculated from dose-response curves using Graphpad Prism software.

[2] = test system: Primary cultures of porcine RPE; assay: Cellular model of retinal pigment epithelium (RPE) phototoxicity (A2E + blue light); assay type: cell-based; conditions: 10 and 30 μM, A2E 30 μM + blue light, 24 h after induction; FIG. 29
Experimental: Primary cultures of porcine RPE are prepared weekly and run on 96-well culture plates after one week in vitro. The cells are incubated with the molecule 10 minutes before induction of phototoxicity. A2E (30 μM) is added to the culture medium 19 hours before cell illumination by a device equipped with blue light emitting leds (λ=[…]). Cell survival and death are detected 24 hours after induction of phototoxicity by staining cells with Hoechst (a nuclear marker) and ethidium (a marker for dead cell nuclei). Images of each well are acquired on a fluorescence microscope equipped with a motorised stage driven by Metamorph software, and cell survival is quantified by inhouse program. The molecules are tested at 10 and 30 μM unless toxicity at this concentration. The negative control corresponds to cells treated with A2E and vehicle. The positive control corresponds to cells treated with A2E and crocetin (100 μM) 48 h before illumination. The treatments are done in quadruplicate and the experiments are performed 4 times.

Abca4−/−Rdh8−/− mice = assay: In vivo model of Stargardt's disease and AMD, blue light damage, ERG and OCT
Experimental: As described in Parmar et al., Invest Ophthalmol Vis Sci., 2016, 57(7), mice lacking ATP-binding cassette transporter 4 (ABCA4) and retinol dehydrogenase 8 (RDH8) mimic features of human Stargardt's disease and age-related macular degeneration. Intense light exposure can accelerate retinal degeneration in Abca4^−/−Rdh8^−/− mice.
Blue light damage (BLD) experiments are performed on 7-week-old Abca4−/−Rdh8−/− mice. The animals were adapted to low light levels (4000 lux, 30 minutes). Six days after BLD, an optical coherence tomography (OCT) examination of each eye is performed, which provides a “snapshot” of the state of the retinal cell layers in living mice. OCT is based on the use of a low coherence interferometer. This imaging technique allows in vivo cross-sectional images of tissues to be taken with a resolution of a few microns. It is performed under light gas anaesthesia (5% isoflurane at induction then 2% during maintenance) and is non-invasive. The pupils of the mice are dilated with 0.5% Midriaticum. A representative image of each eye was extracted and included in separate report documents (4 OCT attachments). The following day, measurements of the electrical activity of the retina were made by measuring scotopic and photopic electroretinograms (ERG). The scotopic ERG is performed after a night in the dark in order to measure the electrical response of the rods which represent 97% of the photoreceptors in the mouse. At higher intensities, the cones also respond. This is followed by a photopic ERG which records the response of the cones only. Three measurements corresponding to the activity of 1) rod and cone photoreceptors, 2) inner retinal bipolar cells and 3) cones only, are obtained. The eyes are then harvested and prepared for subsequent histological analysis. In the IP experiments, one eye is dissected and the retina and RPE are frozen separately. These tissues can be used for further measurements.
Compound 1 in powder form is taken up in DMSO in order to obtain a solution at 20 mM. These solutions are stored at −20° C. and are thawed extemporaneously to prepare a solution diluted 89 times in PBS. These solutions give a final concentration in the eye of around 50 μM for compound 1, and 0.25% DMSO. A vehicle is prepared from pure DMSO to achieve a final 0.25% in the vitreous. Mice are lightly anaesthetised with isoflurane during the IVT procedure. A volume of 1.5 μL is injected into the vitreous of the left eye.
In order to measure the thickness of the retina and the photoreceptor layer, image processing was performed using Image J software. The thickness of the whole retina is measured between the outer segment layer and the ganglion cell layer. The thickness of the photoreceptor layer is measured between the outer plexiform layer and the outer segment layer. On average 6 measurements are made along the length of an OCT image representing an upper or lower half-retina. In order to prepare plates of sections of the eyes from the SBL2 IVT experiment, one eye corresponding to each condition was cut on the cryostat, i.e. one NINI eye and both eyes of an SBL2-injected mouse (I and NI).
The solutions are prepared extemporaneously from water-soluble lyophilisates of compound 7 (SBL1)-cyclodextrin (final CD concentration, 15%) and the corresponding placebos. The solutions are prepared by injecting a predefined volume of 0.9% NaCl into the vial. The vial is then vortexed and the solution is filtered into a new sterile tube. Two groups of 3 mice are used for these tests. The group received either SBL1 (20 mg/kg) (n=3) or placebo-SBL1 (n=3). The volume to be injected is calculated according to the weight of the mice and corresponds to 10 ml/kg. Mice were injected 3 and 1 h before and 1 and 3 h after the start of the BLD.

Structure (SMILES) | EC50 ([1]; SH-SY5Y, 24 h, read-out: EC50 SH-SY5Y Erastin) | cell survival of RPE cells after induction of phototoxicity [2] | electrical response of retinal cells (scotopic and photopic ERG) (Abca4−/−Rdh8−/− mice; intravitreal injection, 50 μM in the eye, after blue light damage) | thickness of the retinas from OCT, injected versus non-injected eyes (Abca4−/−Rdh8−/− mice; intravitreal treatment, FIG. 33) | photopic ERG, injected vs non-injected eyes (Abca4−/−Rdh8−/− mice; intravitreal, 50 μM, 30 cd·s/m2, FIG. 30) | scotopic ERG B wave, injected vs uninjected eyes (Abca4−/−Rdh8−/− mice; intravitreal, 50 μM, p=0.048 vs VEH NI at 30 cd·s/m2, FIG. 32) | scotopic ERG A wave, injected eye vs vehicle-injected eye (Abca4−/−Rdh8−/− mice; intravitreal, 50 μM, significant (P=0.0206) vs VEH NI at 10 cd·s/m2, FIG. 31) | EC50 ([1]; SH-SY5Y cells, 5 μM RSL3, 24 h, MTS, read-out: EC50 SH-SY5Y RSL3) | EC50 ([1]; SH-SY5Y cells, 10 μM Erastin, 24 h, MTS, read-out: EC50 SH-SY5Y Erastin) | electrical response of retinal cells (scotopic and photopic ERG) compared to placebo (Abca4−/−Rdh8−/− mice; intraperitoneal 20 mg/kg, 3 and 1 h before and 1 and 3 h after start of BLD, cyclodextrin lyophilisate) | scotopic B wave at higher intensities (inner retina response) (Abca4−/−Rdh8−/− mice; intraperitoneal 20 mg/kg, FIG. 35) | scotopic ERG response to the 30 cd·s/m^2 flash intensity (mixed rod-cone response) (Abca4−/−Rdh8−/− mice; intraperitoneal 20 mg/kg, FIGS. 34 & 35) | whole retinal thickness from OCT, injected vs non-injected mice (Abca4−/−Rdh8−/− mice; intraperitoneal treatment, FIG. 36)
Oc1ccc(-c2cc3ccccc3[nH]2)cc1 [Compound 1, 4-(1H-indol-2-yl)phenol] | 1060 nM | protect RPE cells significantly against phototoxicity | appears to preserve the electrical response of retinal cells | significant difference | partially preserved | appears preserved | a clear difference is observed |  |  |  |  |  | 
Oc1ccc(-c2cc3cccnc3[nH]2)cc1 [Compound 7, 4-(1H-pyrrolo[2,3-b]pyridin-2-yl)phenol] |  |  |  |  |  |  |  | 1360 nM | 12400 nM | slightly protect the electrical response of retinal cells | protective trend | protective trend | a difference between the whole retinas of injected and non-injected mice
